# Laboratory results: ChEMBL document CHEMBL6153083, “Synthesis, Structural Modification, and Antismall Cell Lung Cancer Activity of 3-Arylisoquinolines with Dual Inhibitory Activity on Topoisomerase I and II” (J Med Chem, 2025)
# Assays:
# NCI-H446 [1] = test: Induction of early apoptosis in human NCI-H446 cells incubated for 48 hrs by Annexin V-FITC/PI staining based flow cytometry; type: functional, cell-based; details: dose 1-8 µM
# NCI-H1048 [2] = test: Inhibition of cell invasion in human NCI-H1048 cells incubated for 24 hrs by transwell assay; type: functional, cell-based
# [3] = Antiproliferative activity against human BEAS-2B cells incubated for 72 hrs; type: toxicity, cell-based
# [4] = Toxicity in BALB/c nude mouse xenografted with human NCI-H446 cells assessed as body weight change at 20 mg/kg, ip for 21 days; type: organism-based; details: in vivo, 504 h, time 21 day
# SHP77 = test: Antiproliferative activity against human SHP77 cells incubated for 72 hrs; type: functional, cell-based; details: SHP77, 72 h
# NCI-H209 = test: Antiproliferative activity against human NCI-H209 cells incubated for 72 hrs; type: functional, cell-based; details: NCI-H209, 72 h
# NCI-H446 [5] = test: Antiproliferative activity against human NCI-H446 cells incubated for 72 hrs; type: functional, cell-based; details: NCI-H446, 72 h
# NCI-H1048 [6] = test: Induction of early apoptosis in human NCI-H1048 cells incubated for 48 hrs by Annexin V-FITC/PI staining based flow cytometry; type: functional, cell-based; details: dose 1-8 µM
# NCI-H1048 [7] = test: Antiproliferative activity against human NCI-H1048 cells incubated for 72 hrs; type: functional, cell-based; details: NCI-H1048, 72 h
# NCI-H82 = test: Antiproliferative activity against human NCI-H82 cells incubated for 72 hrs; type: functional, cell-based; details: NCI-H82, 72 h
# NCI-H146 = test: Antiproliferative activity against human NCI-H146 cells incubated for 72 hrs; type: functional, cell-based; details: NCI-H146, 72 h
# [8] = Antiproliferative activity against human L02 cells incubated for 72 hrs; type: toxicity, cell-based
# [9] = Antiproliferative activity against human NCI-H196 cells incubated for 72 hrs; type: functional, cell-based; details: NCI-H196, 72 h
# NCI-H446 [10] = test: Antitumor activity against human NCI-H446 cells xenografted in BALB/c nude mouse at 20 mg/kg, ip for 21 days relative to control; type: functional; details: NCI-H446, 504 h, time 21 day, read-out: TGI
# NCI-H446 [11] = test: Inhibition of cell invasion in human NCI-H446 cells incubated for 24 hrs by transwell assay; type: functional, cell-based
SMILES,IC50 (NCI-H209),IC50 (NCI-H446 [5]),IC50 (NCI-H1048 [7]),IC50 (NCI-H82),IC50 (NCI-H146),Activity (NCI-H446 [1]),inhibition (NCI-H1048 [2]),IC50 at 72 h [3],Activity [4],IC50 (SHP77),Activity (NCI-H1048 [6]),IC50 at 72 h [8],IC50 [9],inhibition in vivo at 20 mg/kg (NCI-H446 [10]),inhibition (NCI-H446 [11])
COc1cc([C@@H]2c3cc4c(cc3[C@@H](O[C@@H]3O[C@@H]5CO[C@@H](C)O[C@H]5[C@H](O)[C@H]3O)[C@H]3COC(=O)[C@H]23)OCO4)cc(OC)c1O [ETOPOSIDE],> 100 µM,2.1 µM,1.52 µM,8.39 µM,10.6 µM,Not active; Exhibited Minimal Impact,Dose-dependent-effect,6.19 µM,Toxic,26.3 µM,Not active; Exhibited Minimal Impact,15.9 µM,24.1 µM,68.7%,Dose-dependent-effect
OCC1CN(Cc2cc3c(cc2-c2cc4ccc5c(c4cn2)OCO5)OCO3)C1,79.5 µM,60.7 µM,61.4 µM,80.3 µM,> 100 µM,,,23 µM,,63.4 µM,,> 100 µM,42.5 µM,,
CC(=O)C1CCN(Cc2cc3c(cc2-c2cc4ccc5c(c4cn2)OCO5)OCO3)CC1,> 100 µM,49.2 µM,> 100 µM,> 100 µM,> 100 µM,,,> 100 µM,,93.9 µM,,> 100 µM,51.5 µM,,

# Further lines, with some results ahead:
IC50 (NCI-H209),IC50 (NCI-H446 [5]),IC50 (NCI-H1048 [7]),IC50 (NCI-H82),IC50 (NCI-H146),SMILES,Activity (NCI-H446 [1]),inhibition (NCI-H1048 [2]),IC50 at 72 h [3],Activity [4],IC50 (SHP77),Activity (NCI-H1048 [6]),IC50 at 72 h [8],IC50 [9],inhibition in vivo at 20 mg/kg (NCI-H446 [10]),inhibition (NCI-H446 [11])
> 100 µM,55.7 µM,> 100 µM,> 100 µM,> 100 µM,CC1(C)CCN(Cc2cc3c(cc2-c2cc4ccc5c(c4cn2)OCO5)OCO3)CC1,,,> 100 µM,,> 100 µM,,> 100 µM,> 100 µM,,
26.8 µM,1.48 µM,5.17 µM,10.2 µM,15.1 µM,c1c(CN2CCCCCCC2)c(-c2cc3ccc4c(c3cn2)OCO4)cc2c1OCO2,,,24.3 µM,,5.09 µM,,23 µM,10.9 µM,,
